Among the test systems are HS 578T breast; IGROV1 ovarian; K-562 leukemia; MOLT-4 leukemia; NCI-H522 lung; SF-295 CNS; SF-539 CNS; SK-MEL-2 melanoma; SW-620 colon; TK-10 renal.
Assay in all cases: inhibition of tumour cell growth, NCI panel, 48 h

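In this assay, cells in 96-well plates receive the compound at five concentrations for 48 hours. Endpoints are linearly interpolated between the surrounding concentrations. At the GI50, growth is halved. TGI marks complete inhibition of growth.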

On to `Fc1ccc(-c2ncn(C3CCNCC3)c2-c2ccnc(Oc3ccc4c(c3)OCO4)n2)cc1`, for which the GI50 in the assay with HS 578T breast was more than 12.7 µM; with IGROV1 ovarian, 13.9 µM; in the assay with K-562 leukemia it was more than 23.1 µM; with MOLT-4 leukemia, more than 25 µM; in the assay on NCI-H522 lung, more than 25 µM; in the assay with SF-295 CNS it was more than 20.1 µM. Also, the GI50 in the assay on SF-539 CNS, with SK-MEL-2 melanoma, in the assay on SW-620 colon and in the assay with TK-10 renal was more than 25 µM in each case. Further, the TGI in the assay with HS 578T breast, with IGROV1 ovarian, with K-562 leukemia, in the assay with MOLT-4 leukemia, in the assay with NCI-H522 lung and with SF-295 CNS was more than 25 µM throughout. The TGI in the assay with SF-539 CNS, in the assay with SK-MEL-2 melanoma, in the assay on SW-620 colon and in the assay on TK-10 renal was more than 25 µM in each case.
For the molecule `COc1cc(-c2nc3ccccc3s2)ccc1OCCCCOc1cc2c(cc1OC)C(=O)N1CCC[C@H]1C=N2`, the GI50 in the assay with HS 578T breast was 1.23 µM; in the assay with IGROV1 ovarian it was 3.06 µM; with K-562 leukemia, 0.372 µM; in the assay on MOLT-4 leukemia, 0.952 µM; with NCI-H522 lung, 0.736 µM; in the assay with SF-295 CNS it was 2.02 µM. In addition, the GI50 in the assay on SF-539 CNS was 1.61 µM; in the assay with SK-MEL-2 melanoma, 1.6 µM; in the assay on SW-620 colon it was 0.801 µM; in the assay with TK-10 renal it was 2.27 µM. Besides, the TGI in the assay with HS 578T breast worked out at 4.47 µM; with IGROV1 ovarian it was 12.7 µM; in the assay on K-562 leukemia it was 5.88 µM; in the assay with MOLT-4 leukemia it was 7.99 µM; in the assay on NCI-H522 lung, 3.16 µM; in the assay on SF-295 CNS, 10.3 µM. Also, the TGI in the assay with SF-539 CNS came out at 3.22 µM; with SK-MEL-2 melanoma it was 4.23 µM; with SW-620 colon, 2.72 µM; with TK-10 renal it was 8.81 µM.
Consider `CCOC(=O)N1C/C(=C\c2ccccc2)C(=O)/C(=C/c2ccccc2)C1`, for which the TGI is 15.3 µM in the assay on HS 578T breast; 11.7 µM in the assay on IGROV1 ovarian; more than 38.3 µM with K-562 leukemia; 6 µM with MOLT-4 leukemia; 7.44 µM in the assay on NCI-H522 lung; 10.1 µM in the assay on SF-295 CNS. Also, the TGI amounted to 11 µM in the assay on SF-539 CNS, 28.2 µM in the assay on SK-MEL-2 melanoma, 3.7 µM in the assay with SW-620 colon and 26.4 µM with TK-10 renal.
For the molecule `c1ccc(-c2nn3c(c2-c2ccnc4cc(OCCN5CCOCC5)ccc24)CCC3)nc1`, the GI50 is more than 100 µM in the assay on HS 578T breast; 29.6 µM in the assay with IGROV1 ovarian; 30.3 µM in the assay with K-562 leukemia; 51.8 µM in the assay on MOLT-4 leukemia; 44.8 µM in the assay on NCI-H522 lung; more than 100 µM in the assay on SF-295 CNS. For the same molecule, the GI50 is more than 100 µM in the assay on SF-539 CNS, more than 100 µM in the assay on SK-MEL-2 melanoma, 73.2 µM in the assay on SW-620 colon and more than 100 µM with TK-10 renal. In addition, the TGI with HS 578T breast, with IGROV1 ovarian, in the assay on K-562 leukemia, in the assay with MOLT-4 leukemia, in the assay with NCI-H522 lung and with SF-295 CNS was more than 100 µM each time. For the same molecule, the TGI with SF-539 CNS, with SK-MEL-2 melanoma, with SW-620 colon and in the assay with TK-10 renal was more than 100 µM in each case.
For the molecule `C#C[C@]1(O)CC[C@H]2[C@@H]3CC=C4c5sc(Nc6cc(F)ccc6F)nc5CC[C@]4(C)[C@H]3CC[C@@]21C`, the GI50 in the assay with HS 578T breast is 0.424 µM; in the assay on IGROV1 ovarian, 1.68 µM; in the assay with K-562 leukemia, 1.96 µM; in the assay with MOLT-4 leukemia, 0.416 µM; in the assay on NCI-H522 lung, 2.08 µM; with SF-295 CNS it was 0.224 µM. Further, the GI50 in the assay with SF-539 CNS was 0.389 µM; in the assay on SK-MEL-2 melanoma, 1.59 µM; in the assay with SW-620 colon it was 1.78 µM; in the assay with TK-10 renal, 2.58 µM. Moreover, the TGI in the assay with HS 578T breast was 7.13 µM; with IGROV1 ovarian it was 3.73 µM; in the assay on K-562 leukemia, more than 100 µM; in the assay on MOLT-4 leukemia, 10.2 µM; in the assay with NCI-H522 lung, 5.6 µM; with SF-295 CNS, 0.592 µM. In addition, the TGI with SF-539 CNS was determined as 1.74 µM; in the assay with SK-MEL-2 melanoma it was 4.14 µM; with SW-620 colon, 4.38 µM; in the assay with TK-10 renal it was 5.37 µM.
In the case of `CSC(=S)Nc1cc(C)cc(C)n1`, the TGI in the assay with HS 578T breast was more than 31.6 µM; with IGROV1 ovarian, more than 100 µM; in the assay with K-562 leukemia, more than 31.6 µM; in the assay with MOLT-4 leukemia it was more than 31.6 µM; in the assay on NCI-H522 lung it was more than 31.6 µM; in the assay with SF-295 CNS, more than 31.6 µM. In addition, the TGI in the assay with SF-539 CNS is more than 100 µM; with SK-MEL-2 melanoma, more than 31.6 µM; in the assay on SW-620 colon, more than 31.6 µM; with TK-10 renal it was more than 31.6 µM.
Regarding `O=C(NCCN1CCOCC1)OCc1nc2nc(Cl)nc(N3CCOCC3)c2[nH]1`, the GI50 is 2.85 µM in the assay with HS 578T breast; 2.7 µM in the assay with IGROV1 ovarian; 2.43 µM in the assay on K-562 leukemia; 3.32 µM with MOLT-4 leukemia; 1.11 µM in the assay with NCI-H522 lung; 5.77 µM with SF-295 CNS. For the same molecule, the GI50 in the assay with SF-539 CNS is 0.402 µM; in the assay on SK-MEL-2 melanoma it was 6.66 µM; with SW-620 colon it was 2.68 µM; with TK-10 renal it was more than 100 µM. In addition, the TGI in the assay on HS 578T breast, in the assay on IGROV1 ovarian, with K-562 leukemia, in the assay with MOLT-4 leukemia, in the assay on NCI-H522 lung and with SF-295 CNS was more than 100 µM throughout. Moreover, the TGI is 3.29 µM with SF-539 CNS, more than 100 µM in the assay on SK-MEL-2 melanoma, more than 100 µM in the assay on SW-620 colon and more than 100 µM in the assay on TK-10 renal.
Regarding `CN1C(=O)c2ccc3ccccc3c2C1=O`, the TGI in the assay on HS 578T breast, in the assay on IGROV1 ovarian, in the assay with K-562 leukemia, with MOLT-4 leukemia, in the assay with NCI-H522 lung and with SF-295 CNS was more than 100 µM each time. Moreover, the TGI in the assay with SF-539 CNS, in the assay on SK-MEL-2 melanoma, in the assay with SW-620 colon and in the assay with TK-10 renal was more than 100 µM throughout.
Take `COc1cc(/C=C/c2ccc(C)cc2)cc(OC)c1OC`: the TGI in the assay with HS 578T breast was 9.71 µM; with IGROV1 ovarian, more than 91 µM; in the assay on K-562 leukemia, more than 100 µM; with MOLT-4 leukemia, 25.6 µM; in the assay with NCI-H522 lung, 5.7 µM; in the assay on SF-295 CNS, 6.53 µM. The TGI was 7.07 µM with SF-539 CNS, more than 31.6 µM in the assay on SK-MEL-2 melanoma, more than 68.6 µM in the assay with SW-620 colon and 18 µM with TK-10 renal.
On to `Cn1cnc(N)c(N=O)c1=O`, for which the TGI with HS 578T breast, in the assay on IGROV1 ovarian, in the assay on K-562 leukemia, with MOLT-4 leukemia, with NCI-H522 lung and in the assay with SF-295 CNS was more than 10 µM throughout. Besides, the TGI in the assay on SF-539 CNS, in the assay with SK-MEL-2 melanoma, in the assay on SW-620 colon and in the assay with TK-10 renal was more than 10 µM in each case.

Source of the values: PubChem BioAssay (NCI).
